# From patent publication US20170360781A1, “PHARMACEUTICAL COMPOSITION COMPRISING BICYCLIC NITROGEN-CONTAINING AROMATIC HETEROCYCLIC AMIDE COMPOUND AS ACTIVE INGREDIENT” (Astellas Pharma Inc., priority 2014, published 2017)
# How the values were obtained:
# [1] = molecular target: Human Mitochondrial Complex I (Homo sapiens, UniProt O75251+O75306+P03886); test: Evaluation on effect of inhibiting human mitochondrial Complex I (mitochondria from MDA-MB-453 tumor); assay type: biochemical; conditions: mitochondria extracted from MDA-MB-453 tumor; concentration in terms of freebase
# Method: A solution of 9 times the tumor weight for extraction of mitochondria (0.275 M Sucrose, 2.2 mM EDTA, 11 mM Tris/HCl, pH 7.5, Complete-EDTA-free (Roche Diagnostics)) was added thereto, and then the tumor was crushed. The centrifugation was performed at 600×g for 10 minutes at 4° C., the supernatant was obtained, and then the centrifugation was performed at 14,000×g for 10 minutes at 4° C., and therefore pellets were obtained. The pellets were suspended in 10 mM Tris/HCl pH 7.5 of 5 times the weight of the extracted tumor, and therefore a suspension of human mitochondria was obtained.
# Next, 25 or 50 μl of the suspension of human mitochondria was added per 1 ml of a liquid for measuring Complex I activity (25 mM potassium phosphate, pH 7.6, 0.35% Bovine Serum Albumin (BSA), 60 μM 2,6-dichlorophenol-indophenol, 70 μM decylubiquinone, 1 μM antimycin). After the solution was collected and added to a 96 or 384 well plate, a test compound was added to an arbitrary range from the final concentration of 10,000 nM to the final concentration of 0.3 nM. […] Furthermore, NADH was added to each well to the final concentration of 0.2 or 0.5 mM, and the change in absorbance at a wavelength of 600 nm was measured by using the SpectraMax (Molecular Devices, LLC.) set to 37° C. in advance. […]
# [2] = tested on: PIK3CA mutation-positive and BRAF mutation-positive RKO cells derived from human colorectal cancer; test: Anti-tumor test 2 on mice tumor-bearing human colorectal cancer-derived RKO cells; assay type: in vivo; conditions: Balb/c nude mice, final measuring day
# Method: (§1) 4 to 5 week old male Balb/c nude mice (CHARLES RIVER LABORATORIES JAPAN, INC.) were injected and implanted, under the skin on the back, with 3×10^6 PIK3CA mutation-positive and BRAF mutation-positive RKO cells, or 3×10^6 PIK3CA mutation-positive Colo201 cells, both derived from human colorectal cancer suspended to a mixed solution of PBS and Matrigel (registered trademark) in 1:1. Dividing into groups was performed when the tumor volume reached 100 to 250 mm^3, and administering of the test compounds was started. The test was performed on each of the 5 mice in the solvent group and the compound administered group. By oral administration, 6% cyclodextrin aqueous solution for the solvent group, and 6% cyclodextrin aqueous solution in which the test compound was mixed by the dosage shown in Table 4 for the compound administered group were administered. The administration was performed once a day for 11 days (RKO) or 21 days (Colo201), and the body weight and the tumor diameter were measured twice a week. For calculation of the tumor volume, the formula below was used.
# (§2) [Tumor volume(mm^3)]=[major axis of tumor(mm)]×[minor axis of tumor(mm)]^2×0.5
# (§3) The inhibition rate of tumor growth was calculated from the average value of the tumor volume according to the formula below.
# (§4) Inhibition rate of tumor growth(%)=([…]average of tumor volume growth in each group/average of tumor volume growth in solvent group)×100
# [3] = tested on: PIK3CA mutation-positive Colo201 cells derived from human colorectal cancer; test: Anti-tumor test 2 on mice tumor-bearing human colorectal cancer-derived Colo201 cells; assay type: in vivo; conditions: Colo201, Balb/c nude mice, final measuring day
# Method: as §1, §2, §3, §4
# [4] = tested on: Human AML-derived KG-1 cells; test: Anti-tumor test 2 on tumor-bearing mice transplanted with human AML-derived KG-1 cell; assay type: in vivo; conditions: KG-1, Balb/c nude mice, final measuring day
# Method: 4 to 5 weeks old male Balb/c nude mice (CHARLES RIVER LABORATORIES JAPAN, INC.) were injected and implanted, under the skin on the back, with 3×10^6 KG-1 cells suspended to a mixed solution of PBS and Matrigel (registered trademark) in 1:1. Dividing into groups was performed when tumor volume reached 100 to 200 mm^3, and administering of the test compounds was started. The test was performed on each of the 5 mice in the solvent group and the compound administered group. By oral administration, 6% cyclodextrin aqueous solution for the solvent group, and 6% cyclodextrin aqueous solution in which the test compound was mixed by the dosage shown in Table 6 for the compound administered group were administered. The administration was performed once a day for 21 days, and the body weight and the tumor diameter were measured twice a week. For calculation of the tumor volume, the formula below was used.
# as §2
# (§5) The inhibition rate of tumor growth and the rate of tumor regression were calculated from the average value of the tumor volume according to the formula below.
# (§6) Inhibition rate of tumor growth(%)=(1−average of tumor volume growth in each group/average of tumor volume growth in solvent group)×100
# (§7) Rate of tumor regression(%)=(1−average tumor volume in each group on measuring day/average tumor volume in each group when dividing groups)×100
# [5] = tested on: Human AML-derived MV-4-11 cells; test: Anti-tumor test 2 on tumor-bearing mice transplanted with human AML-derived MV-4-11 cell; assay type: in vivo; conditions: MV-4-11, NOD/SCID mice, 14 days after starting the administration
# Method: 4 to 5 week old male NOD/SCID nude mice (CHARLES RIVER LABORATORIES JAPAN, INC.) were injected and implanted, under the skin on the back, with 5×10^6 MV-4-11 cells suspended to a mixed solution of PBS and Matrigel (registered trademark) in 1:1. Administering of the test compounds was started when tumor volume reached 100 to 250 mm^3. The test was performed on each of the 5 mice in the solvent group and the compound administered group. By oral administration, 6% cyclodextrin aqueous solution for the solvent group, and 6% cyclodextrin aqueous solution in which the test compound was mixed by the dosage shown in Table 8 for the compound administered group were administered. The administration was performed once a day by oral administration, and the body weight and the tumor diameter were measured twice a week. For calculation of the tumor volume, the formula below was used.
# as §2, §5, §6, §7
# The anti-tumor effect of Test Compounds A1, B1, C1, and D1 on the final measuring day (14 days after starting the administration) is shown in Table 8.
# [6] = tested on: DB cells derived from DLBCL; test: Anti-tumor test 2 on mice tumor-bearing DLBCL-derived DB cells; assay type: in vivo; conditions: Balb/c nude mice, final measuring day
# Method: (§8) 4 to 5 week old male Balb/c nude mice (CHARLES RIVER LABORATORIES JAPAN, INC.) were injected and implanted, under the skin on the back, with 3×10^6 DB cells or SU-DHL-4 cells both derived from DLBCL suspended to a mixed solution of PBS and Matrigel (registered trademark) in 1:1. Dividing into groups was performed when tumor volume reached 100 to 250 mm^3, and administering of the test compounds was started. The test was performed on each of the 5 mice in the solvent group and the compound administered group. By oral administration, 6% cyclodextrin aqueous solution for the solvent group, and 6% cyclodextrin aqueous solution in which the test compound was mixed by the dosage shown in Table 10 for the compound administered group were administered. The administration was performed once a day for 21 days by oral administration, and the body weight and the tumor diameter were measured twice a week. For calculation of the tumor volume, the formula below was used.
# (§9) [Tumor volume(mm^3)]=[major axis of tumor(mm)]×[minor axis of tumor (mm)]^2×0.5
# as §5, §6, §7
# [7] = tested on: SU-DHL-4 cells derived from DLBCL; test: Anti-tumor test 2 on mice tumor-bearing DLBCL-derived SU-DHL-4 cells; assay type: in vivo; conditions: SU-DHL-4, Balb/c nude mice, final measuring day
# Method: as §8, §9, §5, §6, §7
# [8] = tested on: PIK3CA mutation-positive and BRAF mutation-positive RKO cells derived from human colorectal cancer; test: Anti-tumor test 1 on mice tumor-bearing human colorectal cancer-derived RKO cells; assay type: in vivo; conditions: Balb/c nude mice, 8 mg/kg oral once a day for 10 days, final measuring day
# Method: (§10) 5 to 6 week old male Balb/c nude mice (CHARLES RIVER LABORATORIES JAPAN, INC.) were injected and implanted, under the skin on the back, with 1.5×10^6 PIK3CA mutation-positive and BRAF mutation-positive RKO cells, or 3×10^6 PIK3CA mutation-positive Colo201 cells, both derived from human colorectal cancer suspended to a PBS solution or a mixed solution of PBS and Matrigel (registered trademark) in 1:1. Dividing into groups was performed when the tumor volume reached 100 to 300 mm^3, and administering of the test compounds was started. The test was performed on each of the 5 mice in a solvent group and a compound administered group. By oral administration, 6% cyclodextrin aqueous solution for the solvent group, and 6% cyclodextrin aqueous solution in which the test compound was mixed by 8 mg/kg for the compound administered group were administered. The administration was performed once a day for 10 days (RKO) or 14 days (Colo201), and the body weight and the tumor diameter were measured twice a week. For calculation of the tumor volume, the formula below was used.
# as §2
# (§11) The inhibition rate of tumor growth was calculated from the average value of the tumor volume according to the formula below. […]
# [9] = tested on: PIK3CA mutation-positive Colo201 cells derived from human colorectal cancer; test: Anti-tumor test 1 on mice tumor-bearing human colorectal cancer-derived Colo201 cells; assay type: in vivo; conditions: Colo201, Balb/c nude mice, 8 mg/kg oral once a day for 14 days, final measuring day
# Method: as §10, §2, §11
# [10] = tested on: Human AML-derived KG-1 cells; test: Anti-tumor test 1 on tumor-bearing mice transplanted with human AML-derived KG-1 cell; assay type: in vivo; conditions: KG-1, Balb/c nude mice, final measuring day
# Method: 4 week old male Balb/c nude mice (CHARLES RIVER LABORATORIES JAPAN, INC.) were injected and implanted, under the skin on the back, with 3×10^6 KG-1 cells, suspended to a mixed solution of PBS and Matrigel (registered trademark) in 1:1. After 16 days of implantation, administering of the test compounds was started. The test was performed on each of the 5 mice in the solvent group (6% cyclodextrin aqueous solution) and the test compound administered group (Test Compound Al was mixed to the solvent group by a dosage of 2, 4, or 8 mg/kg). The administration was performed once a day for 14 days by oral administration, and the body weight and the tumor diameter were measured twice a week. For calculation of the tumor volume, the formula below was used.
# as §2, §5, §6, §7
# [11] = tested on: Human AML-derived MV-4-11 cells; test: Anti-tumor test 1 on tumor-bearing mice transplanted with human AML-derived MV-4-11 cell; assay type: in vivo; conditions: MV-4-11, NOD/SCID mice, 8 mg/kg oral once a day for 19 days, final measuring day
# Method: 4 to 5 week old male NOD/SCID nude mice (CHARLES RIVER LABORATORIES JAPAN, INC.) were injected and implanted, under the skin on the back, with 5×10^6 MV-4-11 cells suspended to a mixed solution of PBS and Matrigel (registered trademark) in 1:1. After 7 days of implantation, administering of the test compounds was started. […] The administration was performed once a day for 19 days by oral administration, and the body weight and the tumor diameter were measured twice a week. For calculation of the tumor volume, the formula below was used.
# as §2, §3, §6
# [12] = tested on: DB cells derived from DLBCL; test: Anti-tumor test 1 on mice tumor-bearing DLBCL-derived DB cells; assay type: in vivo; conditions: Balb/c nude mice, 8 mg/kg oral once a day for 16 days, final measuring day
# Method: (§12) 4 to 5 week old male Balb/c nude mice (CHARLES RIVER LABORATORIES JAPAN, INC.) were injected and implanted, under the skin on the back, with 3×10^6 DB cells or WSU-DLCL-2 cells both derived from DLBCL suspended to a mixed solution of PBS and Matrigel (registered trademark) in 1:1. Dividing into groups was performed when the average tumor volume reached 400 to 500 mm^3, and administering of the test compounds was started. […] The administration was performed once a day for 16 days (DB) or 17 days (WSU-DLCL-2) by oral administration, and the body weight and the tumor diameter were measured twice a week. For calculation of the tumor volume, the formula below was used.
# as §9
# (§13) The rate of tumor regression was calculated from the average value of the tumor volume according to the formula below.
# as §7
# [13] = tested on: WSU-DLCL-2 cells derived from DLBCL; test: Anti-tumor test 1 on mice tumor-bearing DLBCL-derived WSU-DLCL-2 cells; assay type: in vivo; conditions: WSU-DLCL-2, Balb/c nude mice, 8 mg/kg oral once a day for 17 days, final measuring day
# Method: as §12, §9, §13, §7
# [14] = 1 mg/kg oral once a day for 11 days
# [15] = 1 mg/kg oral once a day for 21 days
# [16] = 8 mg/kg oral once a day for 11 days
# [17] = 8 mg/kg oral once a day for 21 days
compound,measurement,setting,value
"COc1cnc(CN2CCC(c3ccc4c(c3)cc(C(=O)N3CCN(Cc5ccc(C#N)cc5)CC3)n4C)CC2)cn1 [Compound D1, 4-({4-[(5-{1-[(5-methoxypyrazin-2-yl)methyl]piperidin-4-yl}-1-methyl-1H-indol-2-yl)carbonyl]piperazin-1-yl}methyl)benzonitrile]",IC50,[1],120 nM
same,Inhibition rate RKO,[2]; [14],13%
same,Inhibition rate Colo201,[3]; [15],45%
same,Inhibition rate of tumor growth,[4]; [15],95% inhibition
same,Inhibition rate of tumor growth,[5]; 1 mg/kg oral once a day,90% inhibition
same,Inhibition rate DB,[6]; [15],96% inhibition
same,Inhibition rate SU-DHL-4,[7]; [15],40%
"CCOc1cnc(CN2CCC(c3ccc4cc(C(=O)N5CCN(Cc6ccc(C#N)cc6)CC5)n(C)c4c3)CC2)cn1 [Compound C1, 4-({4-[(6-{1-[(5-ethoxypyrazin-2-yl)methyl]piperidin-4-yl}-1-methyl-1H-indol-2-yl)carbonyl]piperazin-1-yl}methyl)benzonitrile]",Inhibition rate RKO,[2]; [14],58%
same,Inhibition rate Colo201,[3]; [15],54%
same,Rate of tumor regression,[4]; [15],29% regression
same,Rate of tumor regression,[5]; 1 mg/kg oral once a day,77% regression
same,Regression rate DB,[6]; [15],69% regression
same,Inhibition rate SU-DHL-4,[7]; [15],100%
"COc1cnc(CN2CCC(c3ccc4[nH]c(C(=O)N5CCN(Cc6ccc(C(F)(F)F)cc6)CC5)nc4c3)CC2)cn1 [Compound B1, (5-{1-[(5-methoxypyrazin-2-yl)methyl]piperidin-4-yl}-1H-benzimidazol-2-yl){4-[4-(trifluoromethyl)benzyl]piperazin-1-yl}methanone]",Inhibition rate RKO,[2]; [16],55%
same,Inhibition rate Colo201,[3]; [17],52%
same,Rate of tumor regression,[4]; [17],31% regression
same,Rate of tumor regression,[5]; 8 mg/kg oral once a day,76% regression
same,Regression rate DB,[6]; [17],92% regression
same,Inhibition rate SU-DHL-4,[7]; [17],87%
"COc1ccc(CN2CCC(c3ccc4[nH]c(C(=O)N5CCN(Cc6ccc(C(F)(F)F)cc6)CC5)nc4c3)CC2)cn1 [Compound A1, (5-{1-[(6-methoxypyridin-3-yl)methyl]piperidin-4-yl}-1H-benzimidazol-2-yl){4-[4-(trifluoromethyl)benzyl]piperazin-1-yl}methanone]",Inhibition rate of tumor growth,[8],67%
same,Inhibition rate of tumor growth,[9],60%
same,Inhibition rate RKO,[2]; [16],48%
same,Inhibition rate Colo201,[3]; [17],53%
same,Inhibition rate of tumor growth,[10]; 2 mg/kg oral once a day for 14 days,54% inhibition
same,Inhibition rate of tumor growth,[10]; 4 mg/kg oral once a day for 14 days,70% inhibition
same,Rate of tumor regression,[10]; 8 mg/kg oral once a day for 14 days,8% regression
same,Inhibition rate of tumor growth,[4]; [17],99% inhibition
same,Inhibition rate of tumor growth,[11],96%
same,Rate of tumor regression,[5]; 8 mg/kg oral once a day,70% regression
same,Regression rate,[12],67%
same,Regression rate,[13],72%
same,Regression rate DB,[6]; [17],66% regression
same,Inhibition rate SU-DHL-4,[7]; [17],64%
